Results from paper PMC10573198, “Synthesis, Physicochemical Characterization using a Facile Validated HPLC Quantitation Analysis Method of 4-Chloro-phenylcarbamoyl-methyl Ciprofloxacin and Its Biological Investigations” (International Journal of Molecular Sciences, 2023).

Experiments:
DNA gyrase = biological target: T1, DNA gyrase (Staphylococcus aureus, UniProt P0A0K8+P20831); test: S. aureus gyrase supercoiling assay, relaxed pBR322, agarose gel; format: biochemical
T1 construct: gene gyrA; with DNA gyrase subunit B (GyrB); plasmid DNA
T1 sequence (P0A0K8 2-644): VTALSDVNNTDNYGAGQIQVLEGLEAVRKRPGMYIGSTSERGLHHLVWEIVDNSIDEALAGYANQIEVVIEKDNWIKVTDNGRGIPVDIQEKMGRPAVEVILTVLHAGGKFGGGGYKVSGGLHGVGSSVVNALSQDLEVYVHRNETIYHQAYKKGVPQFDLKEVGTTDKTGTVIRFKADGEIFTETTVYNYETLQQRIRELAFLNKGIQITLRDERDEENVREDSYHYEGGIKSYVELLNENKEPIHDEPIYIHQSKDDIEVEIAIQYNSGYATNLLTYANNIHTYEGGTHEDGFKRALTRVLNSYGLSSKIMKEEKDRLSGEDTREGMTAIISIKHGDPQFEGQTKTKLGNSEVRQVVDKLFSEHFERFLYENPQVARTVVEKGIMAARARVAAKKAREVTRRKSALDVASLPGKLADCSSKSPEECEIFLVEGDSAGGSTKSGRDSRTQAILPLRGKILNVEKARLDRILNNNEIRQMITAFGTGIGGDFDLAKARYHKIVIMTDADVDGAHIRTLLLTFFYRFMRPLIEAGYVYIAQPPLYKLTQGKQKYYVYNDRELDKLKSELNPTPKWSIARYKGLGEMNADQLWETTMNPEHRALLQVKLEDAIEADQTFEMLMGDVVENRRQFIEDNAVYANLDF
T1 sequence (P20831 whole entry): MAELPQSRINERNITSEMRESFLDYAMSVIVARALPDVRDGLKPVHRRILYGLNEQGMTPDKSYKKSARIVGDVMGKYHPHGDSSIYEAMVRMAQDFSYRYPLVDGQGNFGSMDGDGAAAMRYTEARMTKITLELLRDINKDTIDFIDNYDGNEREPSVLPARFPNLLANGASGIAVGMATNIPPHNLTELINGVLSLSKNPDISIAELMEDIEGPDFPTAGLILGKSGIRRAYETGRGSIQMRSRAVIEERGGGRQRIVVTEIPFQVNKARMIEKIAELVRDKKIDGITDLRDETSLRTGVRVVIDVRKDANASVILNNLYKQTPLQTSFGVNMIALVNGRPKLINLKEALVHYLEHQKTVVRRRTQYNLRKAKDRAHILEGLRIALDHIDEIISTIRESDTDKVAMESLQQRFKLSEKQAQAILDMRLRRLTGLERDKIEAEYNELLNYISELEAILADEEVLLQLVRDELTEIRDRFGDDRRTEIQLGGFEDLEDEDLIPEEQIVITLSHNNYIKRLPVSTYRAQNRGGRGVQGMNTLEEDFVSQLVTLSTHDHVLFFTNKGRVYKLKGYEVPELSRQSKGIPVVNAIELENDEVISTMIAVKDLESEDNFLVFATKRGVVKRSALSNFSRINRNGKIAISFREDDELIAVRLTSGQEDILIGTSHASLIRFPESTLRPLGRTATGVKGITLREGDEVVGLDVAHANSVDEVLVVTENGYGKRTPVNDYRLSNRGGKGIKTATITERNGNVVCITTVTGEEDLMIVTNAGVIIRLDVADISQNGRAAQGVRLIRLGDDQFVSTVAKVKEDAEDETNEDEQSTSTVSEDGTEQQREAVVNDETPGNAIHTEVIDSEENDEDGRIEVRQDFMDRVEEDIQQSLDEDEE

Topoisomerase IV = biological target: T2, Topoisomerase IV (Staphylococcus aureus, UniProt P0C1S7+Q2FYS4); test: Topo IV kDNA decatenation assay, agarose gel; format: biochemical
T2 construct: gene parC; with Topoisomerase IV subunit B (ParE); kDNA substrate
T2 sequence (Q2FYS4 whole entry): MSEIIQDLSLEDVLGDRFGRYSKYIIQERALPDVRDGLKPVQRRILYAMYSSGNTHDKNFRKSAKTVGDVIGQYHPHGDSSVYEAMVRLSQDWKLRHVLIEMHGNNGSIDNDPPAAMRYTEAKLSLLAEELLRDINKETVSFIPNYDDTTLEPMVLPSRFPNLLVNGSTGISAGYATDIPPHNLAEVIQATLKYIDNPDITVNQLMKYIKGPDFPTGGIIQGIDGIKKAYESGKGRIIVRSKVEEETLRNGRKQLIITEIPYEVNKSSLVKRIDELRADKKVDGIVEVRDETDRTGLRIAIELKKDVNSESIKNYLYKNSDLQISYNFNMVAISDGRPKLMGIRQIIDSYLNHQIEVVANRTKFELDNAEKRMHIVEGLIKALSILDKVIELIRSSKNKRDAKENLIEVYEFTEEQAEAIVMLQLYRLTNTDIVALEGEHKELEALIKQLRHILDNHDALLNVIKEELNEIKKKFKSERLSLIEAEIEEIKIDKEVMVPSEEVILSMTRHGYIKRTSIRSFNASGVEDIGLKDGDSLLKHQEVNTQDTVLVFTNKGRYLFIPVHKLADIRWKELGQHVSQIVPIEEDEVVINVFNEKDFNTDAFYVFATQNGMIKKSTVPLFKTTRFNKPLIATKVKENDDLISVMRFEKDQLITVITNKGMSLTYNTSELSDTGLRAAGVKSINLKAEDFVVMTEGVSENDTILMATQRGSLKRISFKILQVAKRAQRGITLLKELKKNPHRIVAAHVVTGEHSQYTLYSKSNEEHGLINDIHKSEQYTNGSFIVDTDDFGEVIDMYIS
T2 sequence (P0C1S7 whole entry): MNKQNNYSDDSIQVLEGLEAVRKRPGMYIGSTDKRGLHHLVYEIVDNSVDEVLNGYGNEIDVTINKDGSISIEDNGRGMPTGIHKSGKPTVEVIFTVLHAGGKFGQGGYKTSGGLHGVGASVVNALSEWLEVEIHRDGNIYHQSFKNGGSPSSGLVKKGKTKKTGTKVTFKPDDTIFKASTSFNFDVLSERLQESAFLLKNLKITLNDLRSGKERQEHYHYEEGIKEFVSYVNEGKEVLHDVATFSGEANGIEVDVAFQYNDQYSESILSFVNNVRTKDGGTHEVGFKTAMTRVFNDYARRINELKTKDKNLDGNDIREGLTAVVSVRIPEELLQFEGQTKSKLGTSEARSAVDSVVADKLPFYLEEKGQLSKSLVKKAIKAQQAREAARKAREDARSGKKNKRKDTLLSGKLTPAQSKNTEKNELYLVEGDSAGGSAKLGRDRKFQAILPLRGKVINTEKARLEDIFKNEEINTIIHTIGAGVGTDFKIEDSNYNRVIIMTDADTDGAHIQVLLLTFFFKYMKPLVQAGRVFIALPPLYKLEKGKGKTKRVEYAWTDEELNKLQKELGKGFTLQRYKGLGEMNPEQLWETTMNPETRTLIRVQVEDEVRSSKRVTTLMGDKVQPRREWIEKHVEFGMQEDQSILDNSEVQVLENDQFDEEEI

`O=C(CN1CCN(c2cc3c(cc2F)c(=O)c(C(=O)O)cn3C2CC2)CC1)Nc1ccc(Cl)cc1` [Cpx-Drv] showed an IC50 (DNA gyrase) of 13.5 µM and an IC50 (Topoisomerase IV) of 3.83 µM.
